Where two headings read alike, the source gives them in different places. *1 amine or outer side, *2 acyl side, *3 side chain or, on linkers, in order; H or OH if unused. Where a SMILES comes first, the peptide text is derived from it. Bridges are numbered along the chain shown (N, C = ends). [ ]: non-standard residue; d: D form. The star is where a group is joined. X202 = CN([C@@H](Cc1cc(Cl)ccc1-c1ccc(N2CCN(CC(F)F)CC2)cc1)C(=O)[*:2])[*:1]; X150 = CC(C)C(=O)N1C2C=C(c3ccc(F)cc3C[C@@H](C(=O)[*:2])N(C)[*:1])CC1CC2; X179 = CN([C@@H](Cc1cc(Cl)ccc1-c1ccc(N2CCOCC2)c(C#N)c1)C(=O)[*:2])[*:1]; X127 = CN([C@@H](Cc1cc(F)ccc1-c1cnn(S(=O)(=O)C2CC2)c1)C(=O)[*:2])[*:1]; X165 = CN([C@@H](Cc1cc(Cl)ccc1-c1ccc(N2CCOCC2)c(Cl)c1)C(=O)[*:2])[*:1]; X142 = CN([C@@H](Cc1cc(Cl)ccc1C1=CCN(S(C)(=O)=O)CC1)C(=O)[*:2])[*:1]; X195 = CC(=O)Nc1ccc(-c2ccc(Cl)cc2C[C@@H](C(=O)[*:2])N(C)[*:1])cn1; X187 = CC(=O)N1CC=C(c2ccc(Cl)cc2C[C@@H](C(=O)[*:2])N(C)[*:1])C1; X189 = CN([C@@H](Cc1cc(Cl)ccc1-c1ccc2scnc2c1)C(=O)[*:2])[*:1]; NMehhhLys(Me) = CN([C@@H](CCCCCCCN(C)[*:3])C(=O)[*:2])[*:1]; X174 = CN([C@@H](Cc1cc(Cl)cnc1-c1cnn(C)c1)C(=O)[*:2])[*:1]; X22 = CN([C@@H](Cc1cc(Cl)ccc1-c1cnn(C)c1)C(=O)[*:2])[*:1]; NMe(hhhLys) = CN([C@@H](CCCCCCCN[*:3])C(=O)[*:2])[*:1]; Oxane2carbonyl(2R-CF3) = O=C([C@@]1(C(F)(F)F)CCCCO1)*; Cyclobutanecarbonyl(1-CF3) = O=C(C1(C(F)(F)F)CCC1)*; cBuCO(3,3-F2-1-CF3) = O=C(C1(C(F)(F)F)CC(F)(F)C1)*; X161 = Cc1ccc(F)cc1C[C@@H](C(=O)[*:2])N(C)[*:1]; Pro(trans-4-F) = O=C(O)[C@@H]1C[C@@H](F)CN1; Gly(cPr) = N[C@H](C(=O)O)C1CC1
Assays:
NCI-H1048 cells = assay: MTT proliferation assay, NCI-H1048; assay type: cell-based; conditions: 5 days compound exposure, 1:3 serial dilution starting at 10 μM;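 also: Dose-response in 96-well plates over 8 or 10 concentration points, with exposure spanning 3-4 cell doublings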
CyclinE1/CDK2 = target: T1, CyclinE1/CDK2 (Homo sapiens, UniProt P24864); assay: Fluorescence Polarization (FP) competitive binding assay, Cyclin E1/Cdk2;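 also: readings taken after two-hour equilibration at room temperature in HEPES buffer with NaCl, DTT, NP-40 and BSA, IC50 fitted from eight-concentration serial dilution series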
T1 construct: purchased Eurofins, discovery 14-475

OVCAR3 cells = assay: MTT proliferation assay, OVCAR3; assay type: cell-based; conditions: 5 days compound exposure, 1:3 serial dilution starting at 10 μM;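 also: compound given as an 8- or 10-point series, one day after plating, with exposure covering roughly 3-4 cell doublings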
CyclinB1/CDK1 = target: T2, CyclinB1/CDK1 (Homo sapiens, UniProt P14635); assay: Fluorescence Polarization (FP) competitive binding assay, Cyclin B1/Cdk1;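 also: fluorescence polarization read after equilibration at room temperature, with IC50 taken from serially diluted dose-response curves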
T2 construct: purchased Eurofins, discovery 14-450

CyclinA2/CDK2 = target: T3, CyclinA2/CDK2 (Homo sapiens, UniProt P20248); assay: Fluorescence Polarization (FP) competitive binding assay, Cyclin A2/Cdk2;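 also: plates equilibrated two hours at room temperature before polarization reading, IC50 fitted from eight-concentration compound titration curves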
T3 construct: purchased CRELUX Protein Services

[1] = 10 nM Cyclin E1/Cdk2, 2 nM FAM probe, average of 2-3 independent experiments, read-out: Cyclin E FP IC50
[2] = 10 nM Cyclin B1/Cdk1, 2 nM FAM probe; average of 2-3 independent experiments; read-out: Cyclin B FP IC50
[3] = 8 nM Cyclin A2/Cdk2, 2 nM FAM probe; average of 2-3 independent experiments; read-out: Cyclin A FP IC50

Compound	GI50 (NCI-H1048 cells) [nM]	IC50 (CyclinE1/CDK2; [1]) [nM]	GI50 (OVCAR3 cells) [nM]	IC50 (CyclinB1/CDK1; [2]) [nM]	IC50 (CyclinA2/CDK2; [3]) [nM]	IC50 (CyclinE1/CDK2) [nM]	IC50 (CyclinB1/CDK1; read-out: Cyclin B FP IC50; 10 nM Cyclin B1/Cdk1, 2 nM FAM probe; average of 2-3 independent experiments) [nM]	IC50 (CyclinA2/CDK2; read-out: Cyclin A FP IC50; 8 nM Cyclin A2/Cdk2, 2 nM FAM probe; average of 2-3 independent experiments) [nM]
CC(=O)Nc1ccc(-c2ccc(Cl)cc2C[C@H]2C(=O)N(C)CCCCCCC[C@H](N(C)C(=O)[C@@H](NC(=O)[C@@H]3C[C@@H](F)CN3C(=O)C3(C(F)(F)F)CC(F)(F)C3)C3CC3)C(=O)N[C@@H](CC(C)C)C(=O)N2C)cn1 [Example 265] ({cBuCO(3,3-F2-1-CF3)}-[Pro(trans-4-F)][Gly(cPr)][NMehhhLys(Me)]L[X195]; lactam 3-C)	10	640	20	20	20	–	–	–
CC(C)C[C@@H]1NC(=O)[C@@H](N(C)C(=O)[C@@H](NC(=O)[C@@H]2C[C@@H](F)CN2C(=O)C2(C(F)(F)F)CC(F)(F)C2)C2CC2)CC=CCCCCN(C)C(=O)[C@H](Cc2cc(Cl)ccc2-c2cnn(C)c2)N(C)C1=O [Example 29]	40	690	70	20	30	–	–	–
Cc1ccc(F)cc1C[C@H]1C(=O)N(C)CCCCCCC[C@H](N(C)C(=O)[C@@H](NC(=O)[C@@H]2C[C@@H](F)CN2C(=O)C2(C(F)(F)F)CC(F)(F)C2)C2CC2)C(=O)N[C@@H](CC(C)C)C(=O)N1C [Example 123] ({cBuCO(3,3-F2-1-CF3)}-[Pro(trans-4-F)][Gly(cPr)][NMehhhLys(Me)]L[X161]; lactam 3-C)	20	120	20	20	30	–	–	–
CC(C)C[C@@H]1NC(=O)[C@@H](N(C)C(=O)[C@@H](NC(=O)[C@@H]2C[C@@H](F)CN2C(=O)C2(C(F)(F)F)CC(F)(F)C2)C2CC2)CCCCCCCN(C)C(=O)[C@H](Cc2cc(Cl)ccc2-c2ccc(N3CCOCC3)c(Cl)c2)N(C)C1=O [Example 345] ({cBuCO(3,3-F2-1-CF3)}-[Pro(trans-4-F)][Gly(cPr)][NMehhhLys(Me)]L[X165]; lactam 3-C)	20	3050	40	20	30	–	–	–
CC(C)C[C@@H]1NC(=O)[C@@H](N(C)C(=O)[C@@H](NC(=O)[C@@H]2C[C@@H](F)CN2C(=O)C2(C(F)(F)F)CC(F)(F)C2)C2CC2)C/C=C\CCCCN(C)C(=O)[C@H](Cc2cc(Cl)ccc2-c2cnn(S(C)(=O)=O)c2)N(C)C1=O [Example 298]	10	440	20	20	50	–	–	–
CC(C)C[C@@H]1NC(=O)[C@@H](N(C)C(=O)[C@@H](NC(=O)[C@@H]2C[C@@H](F)CN2C(=O)C2(C(F)(F)F)CC2)C2CC2)CC=CCCCCNC(=O)[C@H](Cc2cc(Cl)ccc2Cl)N(C)C1=O (single isomer, unassigned) [Example 5-P1]	390	700	690	20	790	–	–	–
CC(C)C[C@@H]1NC(=O)[C@@H](N(C)C(=O)[C@@H](NC(=O)[C@@H]2C[C@@H](F)CN2C(=O)C2(C(F)(F)F)CC(F)(F)C2)C2CC2)CCCCCCCN(C)C(=O)[C@H](Cc2cc(Cl)ccc2-c2ccc(N3CCN(CC(F)F)CC3)cc2)N(C)C1=O [Example 352] ({cBuCO(3,3-F2-1-CF3)}-[Pro(trans-4-F)][Gly(cPr)][NMehhhLys(Me)]L[X202]; lactam 3-C)	10	510	10	20	20	–	–	–
CC(C)C[C@@H]1NC(=O)[C@@H](N(C)C(=O)[C@@H](NC(=O)[C@@H]2C[C@@H](F)CN2C(=O)C2(C(F)(F)F)CC(F)(F)C2)C2CC2)C/C=C\CCCCN(C)C(=O)[C@H](Cc2cc(F)ccc2-c2cnn(S(C)(=O)=O)c2)N(C)C1=O [Example 278]	10	280	10	20	70	–	–	–
CC(C)C[C@@H]1NC(=O)[C@@H](N(C)C(=O)[C@@H](NC(=O)[C@@H]2C[C@@H](F)CN2C(=O)[C@@]2(C(F)(F)F)CCCCO2)C2CC2)CCCCCCCN(C)C(=O)[C@H](Cc2cc(Cl)cnc2-c2cnn(C)c2)N(C)C1=O [Example 248] ({Oxane2carbonyl(2R-CF3)}-[Pro(trans-4-F)][Gly(cPr)][NMehhhLys(Me)]L[X174]; lactam 3-C)	40	–	20	–	–	100	20	20
CC(C)C[C@@H]1NC(=O)[C@@H](N(C)C(=O)[C@@H](NC(=O)[C@@H]2C[C@@H](F)CN2C(=O)C2(C(F)(F)F)CC(F)(F)C2)C2CC2)CCCC=CCCNC(=O)[C@H](Cc2cc(Cl)ccc2-c2cnn(C3CC3)c2)N(C)C1=O [Example 287]	40	1940	40	20	60	–	–	–
CC(C)C[C@@H]1NC(=O)[C@@H](N(C)C(=O)[C@@H](NC(=O)[C@@H]2C[C@@H](F)CN2C(=O)C2(C(F)(F)F)CC(F)(F)C2)C2CC2)CCCCCCCN(C)C(=O)[C@H](Cc2cc(Cl)ccc2-c2ccc3scnc3c2)N(C)C1=O [Example 169] ({cBuCO(3,3-F2-1-CF3)}-[Pro(trans-4-F)][Gly(cPr)][NMehhhLys(Me)]L[X189]; lactam 3-C)	20	1090	30	20	30	–	–	–
CC(C)C[C@@H]1NC(=O)[C@@H](N(C)C(=O)[C@@H](NC(=O)[C@@H]2CCCN2C(=O)C2(C(F)(F)F)CCC2)C2CC2)CCCCCCCN(C)C(=O)[C@H](Cc2cc(Cl)ccc2-c2cnn(C)c2)N(C)C1=O [Example 76] ({Cyclobutanecarbonyl(1-CF3)}-P[Gly(cPr)][NMehhhLys(Me)]L[X22]; lactam 3-C)	80	880	120	20	20	–	–	–
CC(C)C[C@@H]1NC(=O)[C@@H](N(C)C(=O)[C@@H](NC(=O)[C@@H]2C[C@@H](F)CN2C(=O)C2(C(F)(F)F)CC(F)(F)C2)C2CC2)CCCCCCCN(C)C(=O)[C@H](Cc2cc(Cl)ccc2-c2ccc(N3CCOCC3)c(C#N)c2)N(C)C1=O [Example 379] ({cBuCO(3,3-F2-1-CF3)}-[Pro(trans-4-F)][Gly(cPr)][NMehhhLys(Me)]L[X179]; lactam 3-C)	30	2730	20	20	30	–	–	–
CC(C)C[C@@H]1NC(=O)[C@@H](N(C)C(=O)[C@@H](NC(=O)[C@@H]2C[C@@H](F)CN2C(=O)[C@@]2(C(F)(F)F)CCCCO2)C2CC2)CCCCCCCN(C)C(=O)[C@H](Cc2cc(F)ccc2-c2cnn(S(=O)(=O)C3CC3)c2)N(C)C1=O [Example 282] ({Oxane2carbonyl(2R-CF3)}-[Pro(trans-4-F)][Gly(cPr)][NMehhhLys(Me)]L[X127]; lactam 3-C)	10	100	10	20	30	–	–	–
CC(C)C[C@@H]1NC(=O)[C@@H](N(C)C(=O)[C@@H](NC(=O)[C@@H]2C[C@@H](F)CN2C(=O)C2(C(F)(F)F)CC(F)(F)C2)C2CC2)CCCCCCCNC(=O)[C@H](Cc2cc(Cl)ccc2C2=CCN(S(C)(=O)=O)CC2)N(C)C1=O [Example 284] ({cBuCO(3,3-F2-1-CF3)}-[Pro(trans-4-F)][Gly(cPr)][NMe(hhhLys)]L[X142]; lactam 3-C)	10	1740	10	20	20	–	–	–
CC(C)C[C@@H]1NC(=O)[C@@H](N(C)C(=O)[C@@H](NC(=O)[C@@H]2C[C@@H](F)CN2C(=O)C2(C(F)(F)F)CCC2)C2CC2)CCCCCCCN(C)C(=O)[C@H](Cc2cc(Cl)cnc2-c2cnn(C)c2)N(C)C1=O [Example 247] ({Cyclobutanecarbonyl(1-CF3)}-[Pro(trans-4-F)][Gly(cPr)][NMehhhLys(Me)]L[X174]; lactam 3-C)	50	310	40	20	20	–	–	–
CC(C)C[C@@H]1NC(=O)[C@@H](N(C)C(=O)[C@@H](NC(=O)[C@@H]2C[C@@H](F)CN2C(=O)C2(C(F)(F)F)CC(F)(F)C2)C2CC2)CCCCCCCN(C)C(=O)[C@H](Cc2cc(F)ccc2C2=CC3CCC(C2)N3C(=O)C(C)C)N(C)C1=O (stereo partly drawn) [Example 150] ({cBuCO(3,3-F2-1-CF3)}-[Pro(trans-4-F)][Gly(cPr)][NMehhhLys(Me)]L[X150]; lactam 3-C)	20	210	40	20	20	–	–	–
CC(=O)N1CC=C(c2ccc(Cl)cc2C[C@H]2C(=O)N(C)CCCCCCC[C@H](N(C)C(=O)[C@@H](NC(=O)[C@@H]3C[C@@H](F)CN3C(=O)C3(C(F)(F)F)CC(F)(F)C3)C3CC3)C(=O)N[C@@H](CC(C)C)C(=O)N2C)C1 [Example 308] ({cBuCO(3,3-F2-1-CF3)}-[Pro(trans-4-F)][Gly(cPr)][NMehhhLys(Me)]L[X187]; lactam 3-C)	10	840	10	20	20	–	–	–

Reference: patent publication US20240408169A1 (priority 2023, published 2024)
